For this assay, the target named is T1, phospholipase A2.
T1 construct: gene PLA2G1B; not described in the main text; reagent of the PubChem AID 588400 phospholipase counterscreen (possibly the PLA2 reporter enzyme of an ATG4B assay)
Nature of the assay: phospholipase inhibition assay (as PubChem AID […]). Type of assay: biochemical, Homo sapiens.

Like-named read-outs stand apart in the source and are kept apart here.

As for `O=C(O)c1ccccc1Nc1cc(Cl)ccc1C(=O)O` [lobenzarit], the IC50 (read-out: no significant inhibition at concentrations up to 300 μM) was greater than 300 µM.
Take `Cc1c(Cl)cccc1Nc1ccccc1C(=O)O` [tolfenamic acid]: the IC50 (read-out: IC50) is 20 µM.

These data come from PMC4572361, “Connecting proteins with drug-like compounds: Open source drug discovery workflows with BindingDB and KNIME” (Database: The Journal of Biological Databases and Curation, 2015).
